The results in this text go back to patent US20170152285A1, “EXTRACTING METHOD OF KUGUACIN, PHARMACEUTICAL COMPOSITION COMPRISING THE KUGUACIN AND USE THEREOF” (priority 2015, published 2017).

Each structure is given as a SMILES string.

Assay [1] has as its system IL-6. The experiment in a line: Anti-inflammatory activity assay, IL-6 ELISA, THP-1 co-cultured with P. gingivalis. In kind it is cell-based, Human. As to conditions: for inhibiting the expression of IL-6 induced by P. gingivalis: 1 μM to 5 μM, dose-dependent. As for the experimental part: (§1) P. gingivalis (ATCC 33277/BCRC 14417) purchased from Bioresource Collection and Research Center of Food Industry Research and Development Institute in Hsinchu. P. gingivalis was incubated with TSB medium in an anaerobic incubator at 37° C. in an atmosphere of 86% of N2, 10% of CO2 and 4% of H2. The TSB medium comprises 15 g of Tryptic Soy broth (Becton, Dicksinson and company, U.S.A.), 2.5 g of yeast extract, 0.5 mL of Hemin and 0.1 mL of Vitamin K dissolved in 500 mL of deionized H2O.
(§2) THP-1 cell line (2×10^6 cells/mL) cultured by the method described in Example 3 was placed into a 96-well plate, and then 100 μL of RPMI medium without P. gingivalis was added or 0.1% dimethyl sulfoxide (DMSO) containing P. gingivalis with its multiplicity of infection (MOI) of 10 was added as negative controls. Different concentrations of samples from Examples 1 and 2 were added or luteolin (10 μM) was added as positive control. After co-culturing in an incubator at 37° C. in 5% of CO2 for 24 hours, the supernatants were collected. Then, the levels of IL-6 and IL-8 were analyzed by commercial ELISA kits for IL-6 and IL-8 (Invitrogen).
(§3) The term “MOI” is multiplicity of infection which means the number of the bacteria infecting each cell (the number of bacteria/the number of cells). For example, MOI=1 refers to every cell was infected by one bacterial colony.
(In an ELISA, binding on a coated surface is turned into a signal by an enzyme label.)

A further assay has as its system p-ERK, p-JNK and p-p38. The experiment in a line: Western blot of phosphorylated MAPK proteins in THP-1 induced by P. gingivalis. In kind it is cell-based, Human. The conditions noted are these: 1 μM to 5 μM, induced by P. gingivalis for 30 mins, dose-dependent. The protocol:
(§4) To analyze the effect of the M. charantia extract on phosphorylation of MAPK proteins, THP-1 cell line cultured by the method described in Example 3 (2×10^6 cells/mL) was inoculated in 6-cm petridishes. Every 200 μL of cell culture was added 800 μL of fresh media containing DMSO with P. gingivalis (MOI=10), different concentrations of samples from Examples 1 and 2 or luteolin ([…]) and then co-cultured in a incubator at 37° C. in 5% of CO2 for 30 mins. Next, the cells were collected and centrifuged to remove the supernatant. After adding phosphate buffer solution (PBS), the collected cells were shook and washed repeatedly for 3 times. Then 100 μL of 1× lysis buffer was added in. The mixture was centrifuged at 12,000 rpm and 4° C. for 15 mins, and the supernatant was collected. The protein was quantified to the identical concentration. After protein electrophoresis was conducted, Western blot was conducted to analyze the level of phosphorylated ERK, JNK and p38 (i.e. p-ERK, p-JNK and p-p38).
For orientation: In western blotting, separated proteins are transferred to a membrane and probed.

The test system of another assay is COX-2. The experiment in a line: Periodontitis mouse model, COX-2 mRNA in gum tissue. In kind it is in vivo, C57BL/6 mice. The conditions noted are these: 5 μg injected into gum tissue, day 14. As for the experimental part: (§5) To assess the effect of kuguacin on anti-inflammation in vivo, 6-week old C57BL/6 male mice were used in the present embodiment. The mice were purchased from Laboratory Animal Center of National Taiwan University, and fed with commercial chow diet and drinking water. After free access of food for 7 days, the mice were grouped for experiments, five animals for each group.
(§6) The concentration of P. gingivalis was adjusted to 1×10^9 CFU/mL by steriled PBS, then centrifuged at 10,000 rpm for 5 min. After removing the supernatant, the pellet was heated in water bath at 80° C. for 30 mins.
(§7) According to the method provided in the reference by Molon et al. to establish animal experiment model. Heat-killed P. gingivalis was injected into the gum tissue of C57BL/6 mice to cause inflammation. The mice were anesthetized by ethylether. Samples and bacteria solution were withdrawn using 0.3-mL insulin syringe needle. 10 μL of bacteria and samples were injected into the gum tissue of the mice. If blisters appeared, the injection was successful. […]
(§8) After sacrificing the mice at the 14th day of the experiment, the gums of lower jaw of the mice were sampled and the gene expressions of COX-2, IL-6 and TNF-α therein were analyzed.

The subject of the next assay is IL-8. The experiment in a line: Anti-inflammatory activity assay, IL-8 ELISA, THP-1 co-cultured with P. gingivalis. In kind it is cell-based, Human. As to conditions: for inhibiting the expression of IL-8 induced by P. gingivalis: 1 μM to 5 μM, dose-dependent. The protocol:
as §1, §2, §3

The subject of the next assay is TNF-α. The experiment in a line: Periodontitis mouse model, TNF-α mRNA in gum tissue. In kind it is in vivo, C57BL/6 mice. As to conditions: 5 μg injected into gum tissue, day 14. As for the experimental part: as §5, §6, §7, §8
In assay [2] the test system is IL-6. The experiment in a line: Periodontitis mouse model, IL-6 mRNA in gum tissue. In kind it is in vivo, C57BL/6 mice. As to conditions: 5 μg injected into gum tissue, day 14. The protocol:
as §5, §6, §7, §8

Another assay relates to iNOS. The experiment in a line: Periodontitis mouse model, iNOS mRNA in gum tissue. In kind it is in vivo, C57BL/6 mice. As to conditions: injected into gum tissue with P. gingivalis, day 14.
A further assay concerns ERK. The experiment in a line: Western blot of phosphorylated ERK in THP-1 induced by P. gingivalis. In kind it is cell-based, Human. As to conditions: 10 μM and 20 μM, induced by P. gingivalis for 30 mins. As for the experimental part: as §4

As for `C[C@H](C/C=C/C(C)(C)O)[C@H]1CC[C@@]2(C)[C@@H]3[C@@H](O)C=C4[C@@H](CC[C@H](O)C4(C)C)[C@]3(C=O)CC[C@]12C` [fraction 5212, 3,7,25-trihydroxycucurbita-5,23-dien-19-al], in the assay with IL-6 [1], the “inhibiting the expression of IL-6 induced by P. gingivalis” value was “effective on inhibiting”. The “phosphorylation of the signal transduction proteins (p-ERK, p-JNK, p-p38) in THP-1 cells” value in the assay with p-ERK, p-JNK and p-p38 was “reduced”. In the assay on COX-2, the “mRNA expression of COX-2 in gum tissue, compared to group induced by P. gingivalis as 100%” value came out at 49%. In the assay on IL-8, the “inhibiting the expression of IL-8 induced by P. gingivalis” value is “effective on inhibiting”. Besides, in the assay with TNF-α, the “mRNA expression of TNF-α in gum tissue, compared to group induced by P. gingivalis as 100%” value is 67%. For the same compound, the “mRNA expression of IL-6 in gum tissue, compared to group induced by P. gingivalis as 100%” value with IL-6 [2] stood at 67%. For the same compound, in the assay on iNOS, the “mRNA expression of iNOS in gum tissue” value is “increase”.

Consider `CC(CC=CC(C)(C)O)C1CCC2(C)C3C=CC45OC(O)C3(CCC12C)C4CCC(O)C5(C)C` (centres unmarked) [fraction 5211, 5,19-epoxycucurbita-6,23-diene-3,19,25-triol], for which the “inhibiting the expression of IL-6 induced by P. gingivalis” value in the assay on IL-6 [1] is given as “effective on inhibiting”. The “phosphorylation of the signal transduction proteins (p-ERK, p-JNK, p-p38) in THP-1 cells” value with p-ERK, p-JNK and p-p38 is reported as “reduced”. Besides, the “mRNA expression of COX-2 in gum tissue, compared to group induced by P. gingivalis as 100%” value with COX-2 is 31%. Moreover, the “inhibiting the expression of IL-8 induced by P. gingivalis” value in the assay with IL-8 is “effective on inhibiting”. For the same compound, the “mRNA expression of TNF-α in gum tissue, compared to group induced by P. gingivalis as 100%” value in the assay on TNF-α turned out to be 40%. Also, in the assay on IL-6 [2], the “mRNA expression of IL-6 in gum tissue, compared to group induced by P. gingivalis as 100%” value is given as 34%. Also, in the assay with iNOS, the “mRNA expression of iNOS in gum tissue” value is reported as “increase”.

As to `C=C(C)/C=C/C[C@@H](C)[C@H]1CC[C@@]2(C)[C@@H]3C=C[C@@]45O[C@@H](O)[C@]3(CC[C@]12C)[C@@H]4CC[C@H](O)C5(C)C` [fraction 532, 5β,19-epoxycucurbita-6,23(E),25(26)-triene-3β,19(R)-diol], the “inhibiting the expression of IL-6 by THP-1 cell line” value in the assay on IL-6 [1] (5 μM to 20 μM) is given as “effective on inhibiting”. Further, the “inhibiting the expression of IL-8 by THP-1 cell line” value with IL-8 (5 μM to 20 μM) was “effective on inhibiting”. Besides, the “inhibiting the phosphorylation of ERK” value with ERK was “effective in inhibiting”.
